Values of other authors in patent US20240384361A1, “LONG-TERM SURROGATE VIRUS ASSAYS AND METHODS” (priority 2021, published 2024).

Tests used:
ASFV [1] = tested on: ASFV
ASFV [2] = tested on: ASFV; remark: listed apart in the source

Row | SMILES | virus inactivation on wood surfaces (ASFV [1]) | ASFV infectivity in feed matrices (ASFV [2])
1 | O=C(O)CC(O)(CC(=O)O)C(=O)O [citric acid] | completely inactivated | –
2 | CCCCCCCCCCCC(=O)OCC(O)CO (centres unmarked) [glycerol monolaurate] | – | reduce ASFV infectivity
